Experiments:
Assay type in all cases: in vivo, mouse
[1] = ALT & AST levels, C57/BL6 mice (Example 4, Table 32); details: for ALT Pre-Bleed / AST Pre-Bleed: pre-treatment bleed; for ALT Post-Bleed / AST Post-Bleed: 48 hours following injection
Description: (§1) Eight-week old male C57/BL6 mice (Jackson Laboratory, Bar Harbor, Me.) were administered a single dose of GCGR oligonucleotide by intraperitoneal injection at a concentration of […]. Each dose group consisted of four animals. Shown in Table 31 are the sequences, motifs and conjugates of the GCGR antisense compounds used in this study. Bolded residues indicate 2′-O-methoxyethyl (2′-MOE) moieties. All compounds comprise phosphorothioate internucleoside linkages throughout and each cytosine is replaced with 5-methylcytosine. ISIS 386626, ISIS 386627 and ISIS 386628 further comprise a C16 conjugate group attached to the 2′-O position of the sugar via a diamide linkage (2′-OCH2C(═O)N(H)(CH2)4N(H)C(═O)—(CH2)15CH3). GCGR antisense compounds target published GCGR sequences, including Genbank® Accession No. BC031885.1 (SEQ ID NO: 7).
(§2) Mice were sacrificed 48 hours following injection to determine serum transaminase levels (Table 32); liver, white adipose tissue (WAT), spleen and kidney weight (Table 33); cholesterol, triglyceride and glucose levels (Table 34); GCGR mRNA levels (Tables 35-41); and full-length and total oligonucleotide concentration in liver and kidney (Table 42). Endpoints were assessed using methods described herein and well known to those of ordinary skill in the art. Data is included from a pre-treatment bleed (Pre-Bleed) and post-treatment bleed (Post-Bleed).

GCGR mRNA = GCGR mRNA levels in liver of C57/BL6 mice, single i.p. dose (Example 4, Tables 35-41); details: 48 h, Table 35 comparison ISIS 148364 & ISIS 386626
Description: as §1, §2
To determine whether the phenotypic changes shown above correlated with a decrease in GCGR mRNA, treated animals were evaluated for levels of target mRNA in liver by real time PCR according to methods described herein. Tables 35 to 41 show results from direct comparisons of the antisense compounds targeting GCGR nucleic acid for their effect on target expression. Results are expressed as percent of saline control.

[2] = Triglyceride, cholesterol and glucose levels, pre-bleed and post-bleed (Example 4, Table 34); set-up: TRIG Pre-Bleed / TRIG Post-Bleed / CHOL Pre-Bleed / CHOL Post-Bleed / Glucose Pre-Bleed / Glucose Post-Bleed: unit not given here; details: C57/BL6 mice; for CHOL Pre-Bleed / Glucose Pre-Bleed / TRIG Pre-Bleed: pre-treatment bleed; for CHOL Post-Bleed / Glucose Post-Bleed / TRIG Post-Bleed: post-treatment bleed, 48 h
Description: as §1, §2

[3] = Total and full-length antisense compound concentrations in liver and kidney (Example 4, Table 42); details: C57/BL6 mice; single i.p. dose; 48 h; dose not given
Description: as §1, §2
Treatment with the 2-10-2 MOE gapmers led to a significant dose-dependent decrease in GCGR mRNA expression. […] To determine whether the observed increase in efficiency with the short antisense compounds is due to an increase in antisense compound accumulation, full-length and total antisense compound concentration in the liver and kidney were determined.

[4] = Organ weights: liver, white adipose tissue, spleen, kidney (Example 4, Table 33); details: 48 h, C57/BL6 mice
Description: as §1, §2

386626 (antisense GCTTCTCCATCATA; chemistry not fully specified) [compound 386626]
ALT Pre-Bleed ([1]; 6.25 mg/kg dose group): 26 IU/L
AST Pre-Bleed ([1]; 6.25 mg/kg dose group): 46 IU/L
ALT Pre-Bleed ([1]; 12.5 mg/kg dose group): 28 IU/L
AST Pre-Bleed ([1]; 12.5 mg/kg dose group): 44 IU/L
ALT Pre-Bleed ([1]; 25 mg/kg dose group): 30 IU/L
AST Pre-Bleed ([1]; 25 mg/kg dose group): 44 IU/L
ALT Pre-Bleed ([1]; 50 mg/kg dose group): 28 IU/L
AST Pre-Bleed ([1]; 50 mg/kg dose group): 48 IU/L
ALT Post-Bleed ([1]; single i.p. dose 6.25 mg/kg): 42 IU/L
AST Post-Bleed ([1]; single i.p. dose 6.25 mg/kg): 69 IU/L
ALT Post-Bleed ([1]; single i.p. dose 12.5 mg/kg): 34 IU/L
AST Post-Bleed ([1]; single i.p. dose 12.5 mg/kg): 90 IU/L
ALT Post-Bleed ([1]; single i.p. dose 25 mg/kg): 36 IU/L
AST Post-Bleed ([1]; single i.p. dose 25 mg/kg): 92 IU/L
ALT Post-Bleed ([1]; single i.p. dose 50 mg/kg): 40 IU/L
AST Post-Bleed ([1]; single i.p. dose 50 mg/kg): 120 IU/L
GCGR mRNA levels in liver (GCGR mRNA; 6.25 mg/kg single i.p.): 7% of saline control
GCGR mRNA levels in liver (GCGR mRNA; 12.5 mg/kg single i.p.): 3% of saline control
GCGR mRNA levels in liver (GCGR mRNA; 25 mg/kg single i.p.): 8% of saline control
GCGR mRNA levels in liver (GCGR mRNA; 50 mg/kg single i.p.): 0% of saline control
CHOL Pre-Bleed ([2]; 6.25 mg/kg group): 85
Glucose Pre-Bleed ([2]; 6.25 mg/kg group): 222
TRIG Pre-Bleed ([2]; 6.25 mg/kg group): 86
CHOL Post-Bleed ([2]; 6.25 mg/kg single i.p.): 90
Glucose Post-Bleed ([2]; 6.25 mg/kg single i.p.): 221
TRIG Post-Bleed ([2]; 6.25 mg/kg single i.p.): 162
CHOL Pre-Bleed ([2]; 12.5 mg/kg group): 82
Glucose Pre-Bleed ([2]; 12.5 mg/kg group): 232
TRIG Pre-Bleed ([2]; 12.5 mg/kg group): 100
CHOL Post-Bleed ([2]; 12.5 mg/kg single i.p.): 76
Glucose Post-Bleed ([2]; 12.5 mg/kg single i.p.): 185
TRIG Post-Bleed ([2]; 12.5 mg/kg single i.p.): 148
CHOL Pre-Bleed ([2]; 25 mg/kg group): 87
Glucose Pre-Bleed ([2]; 25 mg/kg group): 235
TRIG Pre-Bleed ([2]; 25 mg/kg group): 100
CHOL Post-Bleed ([2]; 25 mg/kg single i.p.): 72
Glucose Post-Bleed ([2]; 25 mg/kg single i.p.): 186
TRIG Post-Bleed ([2]; 25 mg/kg single i.p.): 187
CHOL Pre-Bleed ([2]; 50 mg/kg group): 79
Glucose Pre-Bleed ([2]; 50 mg/kg group): 239
TRIG Pre-Bleed ([2]; 50 mg/kg group): 87
CHOL Post-Bleed ([2]; 50 mg/kg single i.p.): 57
Glucose Post-Bleed ([2]; 50 mg/kg single i.p.): 179
TRIG Post-Bleed ([2]; 50 mg/kg single i.p.): 163
Full-length antisense compound concentration, Kidney [3]: 355 µg/g
Full-length antisense compound concentration, Liver [3]: 125 µg/g
Total antisense compound concentration, Kidney [3]: 757 µg/g
Total antisense compound concentration, Liver [3]: 274 µg/g
Organ weight: Kidney ([4]; 6.25 mg/kg single i.p.): 100 % saline control
Organ weight: Liver ([4]; 6.25 mg/kg single i.p.): 100 % saline control
Organ weight: Spleen ([4]; 6.25 mg/kg single i.p.): 95 % saline control
Organ weight: WAT ([4]; 6.25 mg/kg single i.p.): 90 % saline control
Organ weight: Kidney ([4]; 12.5 mg/kg single i.p.): 97 % saline control
Organ weight: Liver ([4]; 12.5 mg/kg single i.p.): 96 % saline control
Organ weight: Spleen ([4]; 12.5 mg/kg single i.p.): 114 % saline control
Organ weight: WAT ([4]; 12.5 mg/kg single i.p.): 73 % saline control
Organ weight: Kidney ([4]; 25 mg/kg single i.p.): 103 % saline control
Organ weight: Liver ([4]; 25 mg/kg single i.p.): 109 % saline control
Organ weight: Spleen ([4]; 25 mg/kg single i.p.): 120 % saline control
Organ weight: WAT ([4]; 25 mg/kg single i.p.): 97 % saline control
Organ weight: Kidney ([4]; 50 mg/kg single i.p.): 104 % saline control
Organ weight: Liver ([4]; 50 mg/kg single i.p.): 112 % saline control
Organ weight: Spleen ([4]; 50 mg/kg single i.p.): 130 % saline control
Organ weight: WAT ([4]; 50 mg/kg single i.p.): 77 % saline control
